Results reported in patent publication US20250388565A1, “ESTROGEN RECEPTOR ALPHA DEGRADERS AND METHODS OF USE THEREOF” (Relay Therapeutics, Inc., priority 2022, published 2025).

biological target: T1, ERα protein (HiBiT-tagged) in ESR1_HiBiT KI MCF7 cells (Homo sapiens, UniProt P03372); test: Nano Glo HiBiT Lytic Degradation Assay; format: cell-based; conditions: 6 hours with compound, 14-point dose response 1:3, bell-shape curve fit, half-maximal effect of first Hill model, read-out: MCF7 ESR1 HiBiT - (DC50)
T1 sequence (P03372 1-595): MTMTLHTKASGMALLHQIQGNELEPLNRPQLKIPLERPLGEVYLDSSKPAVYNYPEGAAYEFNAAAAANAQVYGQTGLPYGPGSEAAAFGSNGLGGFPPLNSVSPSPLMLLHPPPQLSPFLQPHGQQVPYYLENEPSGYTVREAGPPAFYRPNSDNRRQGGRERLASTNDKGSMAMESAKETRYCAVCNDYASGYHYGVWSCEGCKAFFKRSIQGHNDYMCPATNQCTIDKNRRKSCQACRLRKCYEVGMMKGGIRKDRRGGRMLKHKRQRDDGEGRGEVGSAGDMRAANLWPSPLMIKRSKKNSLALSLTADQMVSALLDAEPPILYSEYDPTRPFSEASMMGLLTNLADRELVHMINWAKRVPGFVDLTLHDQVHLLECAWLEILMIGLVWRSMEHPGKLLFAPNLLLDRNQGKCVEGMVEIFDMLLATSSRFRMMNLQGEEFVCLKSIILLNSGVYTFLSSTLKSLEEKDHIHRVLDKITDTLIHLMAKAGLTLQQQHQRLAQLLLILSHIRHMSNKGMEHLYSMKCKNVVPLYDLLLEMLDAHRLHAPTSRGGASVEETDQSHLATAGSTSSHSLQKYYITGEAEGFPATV
Summary of the method: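 Lytic Nano-Glo HiBiT luminescence quantified ERα remaining after a 6 h, 37° C compound exposure of MCF7 cells carrying endogenous HiBiT-tagged ESR1. Dosing used 14 threefold dilutions from a 10 mM DMSO stock (0.1% DMSO final), run in duplicate. Signals were corrected for cell-free background and expressed relative to DMSO, and DC50 came from a bell-shaped curve fit (first Hill model half-maximum).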

Structure (SMILES) | DC50
O=C1CC[C@H](N2Cc3cc(N4CCN(CC5CCN(c6ccc([C@@H]7c8ccc(O)cc8CC[C@@H]7C78CC9CC(CC(C9)C7)C8)cc6)CC5)CC4)ccc3C2=O)C(=O)N1 [Compound I-161, (S)-3-(5-(4-((1-(4-((1R,2S)-2-((3R,5R,7R)-adamantan-1-yl)-6-hydroxy-1,2,3,4-tetrahydronaphthalen-1-yl)phenyl)piperidin-4-yl)methyl)piperazin-1-yl)-1-oxoisoindolin-2-yl)piperidine-2,6-dione] | 8 nM
C[C@H]1Cc2cc(O)ccc2[C@@H](c2ccc(N3CCC(CN4CCN(c5ccc6c(c5)CN([C@H]5CCC(=O)NC5=O)C6=O)CC4)CC3)cc2)[C@H]1c1ccccc1 [Compound I-174, (S)-3-(5-(4-((1-(4-((1R,2S,3S)-6-hydroxy-3-methyl-2-phenyl-1,2,3,4-tetrahydronaphthalen-1-yl)phenyl)piperidin-4-yl)methyl)piperazin-1-yl)-1-oxoisoindolin-2-yl)piperidine-2,6-dione] | 18 nM
C[C@@H]1Cc2cc(O)ccc2[C@@H](c2ccc(N3CCC(CN4CCN(c5ccc6c(c5)CN([C@H]5CCC(=O)NC5=O)C6=O)CC4)CC3)cc2)[C@H]1c1ccccc1 [Compound I-175, (S)-3-(5-(4-((1-(4-((1R,2S,3R)-6-hydroxy-3-methyl-2-phenyl-1,2,3,4-tetrahydronaphthalen-1-yl)phenyl)piperidin-4-yl)methyl)piperazin-1-yl)-1-oxoisoindolin-2-yl)piperidine-2,6-dione] | 0.77 nM
O=C1CCC(c2ccc(N3CC[C@@H]4[C@H]3CCN4CC3CCN(c4ccc([C@@H]5c6ccc(O)cc6CC[C@@H]5c5ccccc5)cc4)CC3)cc2)C(=O)N1 (stereo partly drawn) [Compound I-176, 3-(4-((3aR,6aR)-4-((1-(4-((1R,2S)-6-hydroxy-2-phenyl-1,2,3,4-tetrahydronaphthalen-1-yl)phenyl)piperidin-4-yl)methyl)hexahydropyrrolo[3,2-b]pyrrol-1 (2H)-yl)phenyl)piperidine-2,6-dione] | 3300 nM
O=C1CCC(c2ccc(N3CC[C@H]4[C@@H]3CCN4CC3CCN(c4ccc([C@@H]5c6ccc(O)cc6CC[C@@H]5c5ccccc5)cc4)CC3)cc2)C(=O)N1 (stereo partly drawn) [Compound I-177, 3-(4-((3aS,6aS)-4-((1-(4-((1R,2S)-6-hydroxy-2-phenyl-1,2,3,4-tetrahydronaphthalen-1-yl)phenyl)piperidin-4-yl)methyl)hexahydropyrrolo[3,2-b]pyrrol-1 (2H)-yl)phenyl)piperidine-2,6-dione] | ≥ 10000 nM
O=C1CCC(c2cccc(N3CC[C@H]4[C@@H]3CCN4CC3CCN(c4ccc([C@@H]5c6ccc(O)cc6CC[C@@H]5c5ccccc5)cc4)CC3)c2)C(=O)N1 (stereo partly drawn) [Compound I-179, 3-(3-((3aS,6aS)-4-((1-(4-((1R,2S)-6-hydroxy-2-phenyl-1,2,3,4-tetrahydronaphthalen-1-yl)phenyl)piperidin-4-yl)methyl)hexahydropyrrolo[3,2-b]pyrrol-1 (2H)-yl)phenyl)piperidine-2,6-dione] | 34 nM

More lines, in order of falling DC50, values ahead:

DC50 | Structure (SMILES)
3 nM | O=C1CC[C@H](N2Cc3cc(N4CCN(CC5CCN(c6ccc([C@@H]7c8ccc(O)cc8CC[C@@H]7C7CCCCC7)cc6F)CC5)CC4)ccc3C2=O)C(=O)N1 [Compound I-162, (S)-3-(5-(4-((1-(4-((1R,2R)-2-cyclohexyl-6-hydroxy-1,2,3,4-tetrahydronaphthalen-1-yl)-2-fluorophenyl)piperidin-4-yl)methyl)piperazin-1-yl)-1-oxoisoindolin-2-yl)piperidine-2,6-dione]
0.86 nM | O=C1CC[C@H](N2Cc3cc(N4CCN(CC5CCN(c6ccc([C@@H]7c8ccc(O)cc8CC[C@@H]7CC(F)(F)F)cc6)CC5)CC4)ccc3C2=O)C(=O)N1 [Compound I-157, (3S)-3-[5-[4-[[1-[4-[(1R,2R)-6-hydroxy-2-(2,2,2-trifluoroethyl)tetralin-1-yl]phenyl]-4-piperidyl]methyl]piperazin-1-yl]-1-oxo-isoindolin-2-yl]piperidine-2,6-dione]
